# In article PMC8119899, “A Single Mutation in the Outer Lipid-Facing Helix of a Pentameric Ligand-Gated Ion Channel Affects Channel Function Through a Radially-Propagating Mechanism” (Frontiers in Molecular Biosciences, 2021):
# Where a chain is given by its changes, count along the chain named.
# Tests used:
# WT 5-HT3A receptor = target: T1, WT 5-HT3A receptor (Mus musculus, UniProt P23979); assay: FlexStation membrane potential dye, 5-HT response, WT receptor in HEK293 cells; format: cell-based; settings: mean and SEM, n ≥ 3
# T1 construct: expressed in transfected cells; host or cells: HEK293
# T1 sequence (P23979 24-483 isoform P23979-2 limits assumed): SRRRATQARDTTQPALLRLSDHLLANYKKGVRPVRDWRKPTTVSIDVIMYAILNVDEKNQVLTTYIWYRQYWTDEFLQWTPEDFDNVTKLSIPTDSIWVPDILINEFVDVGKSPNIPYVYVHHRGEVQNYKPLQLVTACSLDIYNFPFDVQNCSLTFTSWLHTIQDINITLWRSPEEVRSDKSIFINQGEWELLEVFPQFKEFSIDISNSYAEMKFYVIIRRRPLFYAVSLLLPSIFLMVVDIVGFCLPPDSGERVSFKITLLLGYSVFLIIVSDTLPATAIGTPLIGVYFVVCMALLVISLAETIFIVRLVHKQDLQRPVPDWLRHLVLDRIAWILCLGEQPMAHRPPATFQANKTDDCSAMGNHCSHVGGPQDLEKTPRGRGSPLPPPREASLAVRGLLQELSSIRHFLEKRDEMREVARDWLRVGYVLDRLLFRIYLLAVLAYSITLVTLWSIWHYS
# Protocol: (§1) The mouse 5-HT3A cDNA (Q6J1J7) in pcDNA3.1 (for HEK cell transfection) or pGEMHE (for RNA production) was modified by QuikChange site-directed mutagenesis (Agilent Technologies) to create point mutants (verified by sequencing).
# Human embryonic kidney (HEK) 293 cells were maintained at 37 °C at 5% CO2 in a humidified atmosphere, in Dulbecco's Modified Eagle's Medium/Nutrient Mix F12 (1:1) (Invitrogen, Paisley, UK) with GlutaMAX^TM and 10% fetal bovine serum (GE Healthcare) (DMEM/FBS) and passaged when confluent.
# (§2) As described previously (Price and Lummis, [2005]) cells were incubated for 45 min with fluorescent membrane potential-sensitive dye (Membrane Potential Blue kit, Molecular Devices) diluted in Flex buffer (10 mM HEPES, 115 mM NaCl, 1 mM KCl, 1 mM CaCl2, 1 mM MgCl2, and 10 mM glucose, pH 7.4), and subsequently assayed at room temperature for 180 s, with readings every 2 s. […] (log of the concentration of ligand), a is the minimum response, b is the maximum response, and nH is the Hill slope.
# 5-HT3A receptor K255L = target: T2, 5-HT3A receptor K255L (Mus musculus, UniProt P23979, K282L); assay: FlexStation membrane potential dye, 5-HT response, K255L receptor in HEK293 cells; format: cell-based; parameters: key: Mutants that did not respond in the functional assay are marked as non functional (NF)
# T2 construct: expressed in transfected cells
# T2 sequence (P23979 24-489 K282L): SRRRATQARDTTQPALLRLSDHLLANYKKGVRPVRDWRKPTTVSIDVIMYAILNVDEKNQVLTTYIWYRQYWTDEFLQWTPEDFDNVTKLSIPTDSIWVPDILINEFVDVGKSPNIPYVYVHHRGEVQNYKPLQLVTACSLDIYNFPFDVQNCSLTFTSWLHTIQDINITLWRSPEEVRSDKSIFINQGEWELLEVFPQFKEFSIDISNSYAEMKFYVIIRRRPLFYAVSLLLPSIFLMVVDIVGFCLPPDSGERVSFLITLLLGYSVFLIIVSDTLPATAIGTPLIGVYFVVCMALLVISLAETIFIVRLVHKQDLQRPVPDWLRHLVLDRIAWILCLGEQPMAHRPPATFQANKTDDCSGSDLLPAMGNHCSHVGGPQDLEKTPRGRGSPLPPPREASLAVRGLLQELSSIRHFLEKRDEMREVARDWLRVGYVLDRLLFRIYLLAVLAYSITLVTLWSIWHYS
# Protocol: as §1
# Human embryonic kidney (HEK) 293 cells were maintained at 37 °C at 5% CO2 in a humidified atmosphere, in Dulbecco's Modified Eagle's Medium/Nutrient Mix F12 (1:1) (Invitrogen, Paisley, UK) with GlutaMAX^TM and 10% fetal bovine serum (GE Healthcare) (DMEM/FBS) and passaged when confluent. Five micrograms of WT or mutant 5-HT3A DNA and 30 μl polyethyleneamine (Polysciences) incubated for 10 min in 1 mL DMEM was added to 60% confluent HEK293 cells for transfection, and cells grown for 2 days before assays.
# as §2
# 5-HT3A receptor Y441A = target: T3, 5-HT3A receptor Y441A (Mus musculus, UniProt P23979, Y468A); parameters: expressed in transfected cells; method as in Mesoy et al., [2019]; settings: HEK293 cells, ref Mesoy et al., [2019]; cited from earlier work
# T3 sequence (P23979 24-489 Y468A): T2 sequence (P23979 24-489 K282L) with L259K, Y445A
structure (smiles),measurement,setting,value
NCCc1c[nH]c2ccc(O)cc12 [5-HT],nH (Hill slope),WT 5-HT3A receptor,3.7 ± 0.3
same,pEC50,5-HT3A receptor K255L,NF
same,response to application of 5-HT,5-HT3A receptor Y441A,Neither Y441A nor D238A responded
